Patent US20110136752A1, “NOVEL ANTIBIOTICS” (priority 2009, published 2011)

How the values were obtained:
[1] = system: different bacterial test strains; test: Effect of serum or BSA supplement on MIC of NOVO4; format: cell-based
Protocol: The lowest concentration of NOVO4 without any cell growth is the MIC (Minimal Inhibitory Concentration) of NOVO4. The data is the MIC of NOVO4 on different bacterial test strains in the presence of Mueller Hinton broth (MHB) or with MHB supplemented with either […].
These studies follow the procedure for determining the MIC described above in Example 5. Briefly, two-fold serial dilution of the NOVO4 compound are added to the test cells of interest, MRSA and VRE, and the lowest concentration of compound that inhibits growth after a period of incubation is considered to be the MIC. To determine the effect of serum on the activity of NOVO4, MIC in the absence of serum is compared to MIC in media supplemented with 10% calf bovine serum (ATCC 30-2030).

[2] = Single-dose acute toxicity in mice; conditions: mouse, in vivo; female CD-1 mice, SC, 3 doses of 50 mg/kg 2 hours apart in 0.5% methylocellulose, followed for 2 days
Protocol: Single-dose, acute toxicity experiments were carried out in female CD-1 mice. The animals were acclimated for 3 days and were 7 weeks old at the start of the experiments. Their weight ranged from 16 to 24 g.
In order to determine the maximum tolerated dose, a group of 3 mice was dosed with a total of 4.9 mg/kg of NOVO4 (10% DMSO in saline) delivered as two separate IV doses, 2 hr apart. In addition, another 3 mice were dosed subcutaneously with a total of 150 mg/kg of NOVO4 in 0.5% methylocellulose, delivered as 3 doses of 50 mg/kg each, 2 hours apart. The mice were then followed for 2 days.
This indicated a very high MTD of >150 mg/kg for NOVO4.

[3] = system: NIH3T3 mouse embryonic fibroblasts; test: Mammalian cytotoxicity, CellTiter 96 AQueous One Solution assay; format: cell-based; conditions: NIH3T3 cells, 24 hr, highest tested concentration 16 μg/ml
Protocol: Mammalian cytotoxicity assays were performed using NIH3T3 mouse embryonic fibroblasts (ATCC CRL-1658), and cytotoxicity was measured using the CellTiter 96® AQueous One Solution Cell Proliferation Assay (Promega, Madison, Wis., Cat: G3582), according to the manufacturer's recommendations.
100× working stocks of 2-fold serial dilution of NOVO4 in DMSO were created in a 96 well format. The highest concentration of the 100× concentration (working stock) was prepared by adding […] of the stock solution of NOVO4 (10 mg/ml in DMSO) for every 0.68 μl of DMSO to well A02. 0.5 μl of this 100× stock was added for every 0.5 μl of DMSO in well A03 to create a total of 7 two-fold serial dilution series, from 1600 μg/ml to 25 μg/ml (from highest in well A02 to A08,). A DMSO control was also included (wells in column A01, and A12). […]
The plate was visually inspected under a dissecting microscope, and the absorbance at 490 nm was read using a Spectramax Plus Spectrophotometer, with wells A12, and B12 reserved as blanks The signal of compound alone (well A11) was verified not to contribute to the absorbance at this wavelength. Next, 20 μl of the CellTiter 96® AQueous One Solution Cell Proliferation Assay (Promega, Madison, Wis., Cat: G3582) was added to each well, and the plate was read after 3 hr of incubation. […]

human red blood cells = format: cell-based
Protocol: The effect of NOVO4 on the hemolysis of human red blood cells was also tested. A total of 10 ml of expired packed red blood cells from the blood bank was gently added to 80 ml of PBS (Phosphate buffered saline), and pelleted at 1000 g for 5 minutes at 4° C. The upper phase and buffy layer (white blood cells) were removed. The cells are repeatedly washed by gentle mixing with PBS, and centrifugation until the upper phase is clear. In the last wash, 40 ml of 1× PBS with 0.05% BSA was added to half of the red blood cells while 40 ml of 1× PBS without BSA was added to the other half. The upper phase of the last wash was removed to leave a total volume of about 10 ml. The concentration of the red blood cells was measured by using the spectrophometer at 600 nm. An aliquot of the cells are diluted to a final density OD600 of 24 in 1× PBS, and another to a final density OD600 of 24 in 1× PBS with 0.05% BSA.
The compound NOVO4 is two-fold serially diluted (similar to that described above for mammalian NIH3T3 cytotoxicity assay) as 100× concentration in DMSO, ranging from 0.4 μg/ml to 400 μg/ml. […] After thorough mixing, the A450 was read using a Spectramax Plus Spectrophotometer, using wells with only 1× PBS as blanks […]

Compound | effect of 0.05% BSA on the MIC ([1]; MHB versus MHB + 0.05% BSA, depending on the test organisms) | effect of calf bovine serum on the MIC ([1]; MHB versus media supplemented with 10% calf bovine serum) | MTD at 2 days [2] [mg/kg] | LD50 [3] [µg/mL] | hemolysis (human red blood cells) | A450 (hemoglobin released by lysis of red blood cells) (human red blood cells)
CC1\C=C/C=C\C=C/C=C\C=C/C(OC2OCC(O)C(O)C2N)C(C)(O)/C=C/C=C\C=C/C=C/C(=O)NC1 (stereo not drawn) [NOVO4] | either unchanged or lowered sightly | no significant effect | > 150 | > 16 | no significant hemolysis | 
Triton X100 [reference compound] |  |  |  |  |  | 0.41
